The results in this text go back to ChEMBL document CHEMBL2311532, “Identification of benzofuran central cores for the inhibition of leukotriene A(4) hydrolase” (Bioorg Med Chem Lett, 2013).

What is called IC50 is the point on the concentration scale where inhibition reaches its midpoint. Broadly, the EC50 is the concentration needed to bring the measured effect to its halfway point. The term half-life denotes how long it takes for the measured level to halve. High values mean slow loss, low ones fast loss. A word on the bioavailability: it is the share of a dose that reaches the circulation, judged against a reference dose that is usually intravenous. The low end stands for little systemic uptake, the high end for much systemic uptake. A word on the ED50: it is the dose that gives a 50% effect, or the effect in half of the subjects.

The target of data set [1] is T1, Leukotriene A-4 hydrolase (Mus musculus, UniProt P24527).
T1 sequence (P24527 whole entry): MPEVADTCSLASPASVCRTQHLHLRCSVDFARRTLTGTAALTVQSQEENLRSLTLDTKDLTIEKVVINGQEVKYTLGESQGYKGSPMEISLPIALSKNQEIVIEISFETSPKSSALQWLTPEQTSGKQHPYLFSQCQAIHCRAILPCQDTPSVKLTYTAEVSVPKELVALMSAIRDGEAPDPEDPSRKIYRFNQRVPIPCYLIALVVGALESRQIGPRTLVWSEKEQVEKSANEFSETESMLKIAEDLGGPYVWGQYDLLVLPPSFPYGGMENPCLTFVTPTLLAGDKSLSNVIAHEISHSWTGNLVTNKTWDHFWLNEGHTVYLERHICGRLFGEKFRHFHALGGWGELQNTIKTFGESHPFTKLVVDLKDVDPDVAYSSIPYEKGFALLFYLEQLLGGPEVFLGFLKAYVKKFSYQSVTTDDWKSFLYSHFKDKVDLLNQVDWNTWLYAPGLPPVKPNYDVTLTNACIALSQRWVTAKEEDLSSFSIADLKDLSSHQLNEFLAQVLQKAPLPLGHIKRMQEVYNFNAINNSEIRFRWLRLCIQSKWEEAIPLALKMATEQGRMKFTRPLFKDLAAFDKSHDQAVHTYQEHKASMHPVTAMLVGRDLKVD
Briefly: Inhibition of LTA4H in CD1 mouse whole blood assessed as decrease in calcium ionophore-stimulated LTB4 production incubated for 15 mins prior to calcium ionophore challenge measured after 10 to 30 mins by enzyme immunoassay.

Data set [2] concerns the target T2, Leukotriene A-4 hydrolase (Homo sapiens, UniProt P09960).
T2 sequence (P09960 whole entry): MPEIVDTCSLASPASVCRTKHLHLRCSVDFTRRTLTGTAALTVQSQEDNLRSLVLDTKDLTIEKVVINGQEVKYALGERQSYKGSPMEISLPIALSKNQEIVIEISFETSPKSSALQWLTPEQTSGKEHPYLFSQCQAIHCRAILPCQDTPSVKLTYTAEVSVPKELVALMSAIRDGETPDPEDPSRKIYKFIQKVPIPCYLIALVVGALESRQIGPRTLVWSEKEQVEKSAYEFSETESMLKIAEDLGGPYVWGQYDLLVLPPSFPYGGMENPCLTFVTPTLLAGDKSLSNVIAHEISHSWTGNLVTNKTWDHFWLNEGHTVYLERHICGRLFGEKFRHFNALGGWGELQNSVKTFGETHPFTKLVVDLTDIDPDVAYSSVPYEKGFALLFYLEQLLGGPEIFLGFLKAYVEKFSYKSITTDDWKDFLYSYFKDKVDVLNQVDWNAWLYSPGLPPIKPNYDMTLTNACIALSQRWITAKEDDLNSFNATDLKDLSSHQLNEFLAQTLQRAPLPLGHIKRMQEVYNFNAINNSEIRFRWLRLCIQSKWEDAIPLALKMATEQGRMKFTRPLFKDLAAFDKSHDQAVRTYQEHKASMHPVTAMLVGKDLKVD
Nature of the data set: Inhibition of recombinant human LTA4H expressed in Sf9 cells using LTA4 as substrate incubated for 10 mins prior to substrate addition measured after 10 to 30 mins by enzyme immunoassay.

Data set [3] has as its system Mus musculus. Nature of the data set: Inhibition of LTA4H in po dosed Balb/c mouse assessed as concentration required to decrease calcium ionophore-stimulated LTB4 production in blood administered for 4 hrs prior to calcium ionophore challenge measured after 10 to 30 mins by enzyme immunoassay. Format: functional, organism-based.
A short description of data set [4]: Half life in Sprague-Dawley rat at 3 mg/kg, iv and 10 mg/kg, po. In kind it is ADME, organism-based. The conditions noted are these: in vivo.
Data set [5] can be described thus: Oral bioavailability in Sprague-Dawley rat at 10 mg/kg. In kind it is ADME, organism-based. Particulars: in vivo.
Data set [6] in a line: Clearance in Sprague-Dawley rat at 3 mg/kg, iv and 10 mg/kg, po. In kind it is ADME, organism-based. The conditions noted are these: in vivo.
Data set [7] in a line: Volume of distribution at steady state in Sprague-Dawley rat at 3 mg/kg, iv and 10 mg/kg, po. In kind it is ADME, organism-based. Particulars: in vivo, read-out: Vdss.
For data set [8], the system named is Mus musculus. Briefly: Inhibition of LTA4H in po dosed Balb/c mouse assessed as decrease in calcium ionophore-stimulated LTB4 production in blood administered for 4 hrs prior to calcium ionophore challenge measured after 10 to 30 mins by enzyme immunoassay. In kind it is functional.
Data set [9] concerns the target T2, Leukotriene A-4 hydrolase. Briefly: Inhibition of LTA4H in human whole blood assessed as decrease in LTB4 production.

The structures appear in SMILES notation.

`O=C1CCCN1C1CCN(Cc2coc3cc(Oc4nc5ccccc5s4)ccc23)CC1`: the IC50 was found to be 230 nM in data set [1] and 58 nM in [2].

Turning to `c1cnc2nc(Oc3ccc4cc(CN5CCCCC5)oc4c3)sc2c1`, the IC50 in data set [1] was 140 nM; in data set [2], 51 nM.

For `CC(=O)N1CC2CC1CN2Cc1cc2cc(Oc3nc4cnccc4s3)ccc2o1` (centres undefined), the IC50 in data set [2] amounted to 340 nM.

With `c1ccc2sc(Oc3ccc4c(CN5CCOCC5)coc4c3)nc2c1`, the IC50 was 1120 nM in [1] and 140 nM in data set [2].

`CC(=O)N1CC2CC1CN2Cc1coc2cc(Oc3nc4cccnc4s3)ccc12` (centres undefined): the IC50 in data set [2] worked out at 300 nM.

With `O=C1CCCN1C1CCN(CCOc2ccc(Oc3nc4ccccc4s3)cc2)CC1`, in the data set with Mus musculus [3], the EC50 stood at 72 nM. In [4], this compound gave a half-life of 0.9 h. For the same compound, the bioavailability in data set [5] was found to be 29%. For the same compound, the clearance in data set [6] is 8.33 mL/min/kg. Besides, in [7], the Vd is 1.1 L/kg. Further, in the data set with Mus musculus [8], the ED50 came to 10 mg/kg.

`CC(=O)N1CC2CC1CN2Cc1cc2ccc(Oc3nc4cccnc4s3)cc2o1` (centres undefined): the IC50 in data set [2] is 2130 nM.

For `CC(=O)N[C@H]1C[C@H]2CC[C@@H](C1)N2Cc1coc2cc(Oc3nc4ccccc4s3)ccc12`, the IC50 in [1] turned out to be 69 nM; in data set [2], 7.3 nM.

Regarding `CC(=O)N1CC2CC1CN2Cc1cc2ccc(Oc3nc4ncccc4s3)cc2o1` (centres undefined), the IC50 in data set [1] is 210 nM; in data set [2], 62 nM.

Take `c1cnc2nc(Oc3ccc4c(CN5CCOCC5)coc4c3)sc2c1`: the IC50 in data set [1] is 49 nM; in data set [2], 25 nM.

Consider `c1ccc2sc(Oc3ccc4cc(CN5CCCCC5)oc4c3)nc2c1`, for which the IC50 in [2] stood at 430 nM.

Turning to `O=C(O)C1CCN(Cc2coc3cc(Oc4nc5ncccc5s4)ccc23)CC1`, the values for the IC50 in [1] and in [2] were 280 nM and 8.3 nM, respectively.

In the case of `CC(=O)N[C@H]1C[C@H]2CC[C@@H](C1)N2Cc1coc2cc(Oc3nc4ncccc4s3)ccc12`, the IC50 was 9.8 nM in [1] and 1.6 nM in data set [2].

Regarding `CC(=O)N1CC2CC1CN2Cc1cc2cc(Oc3nc4ncccc4s3)ccc2o1` (centres undefined), the IC50 was 27 nM in data set [1] and 7 nM in [2].

With `O=C1CCCN1C1CCN(Cc2coc3cc(Oc4nc5ncccc5s4)ccc23)CC1`, the EC50 in the data set with Mus musculus [3] was determined as 3 nM. For the same compound, the half-life in data set [4] was 2.5 h. The bioavailability in data set [5] came to 61%. Further, in data set [6], the clearance was 11.7 mL/min/kg. Besides, in data set [9], the IC50 came out at 61 nM. For the same compound, the Vd in data set [7] came out at 1.6 L/kg. For the same compound, the IC50 in [1] is 21 nM. Moreover, in the data set on Mus musculus [8], the ED50 is 0.3 mg/kg and the inhibition entry is “Dose-dependent effect”.

Consider `c1cnc2nc(Oc3ccc4oc(CN5CCCCC5)cc4c3)sc2c1`, for which the IC50 in data set [1] worked out at 91 nM; in [2], 66 nM.

For the compound `O=C(O)C1CCN(Cc2coc3cc(Oc4nc5ccccc5s4)ccc23)CC1`, the IC50 in data set [1] was 19 nM; in data set [2], 14 nM.

Consider `c1ccc2sc(Oc3ccc4oc(CN5CCCCC5)cc4c3)nc2c1`, for which the IC50 in [2] was 330 nM.

As to `CC(=O)N1C[C@@H]2C[C@H]1CN2Cc1coc2cc(Oc3nc4ccccc4s3)ccc12`, the results for the IC50 in data set [1] and in data set [2] were 250 nM and 34 nM, respectively.

On to `CC(=O)N1C[C@@H]2C[C@H]1CN2Cc1coc2cc(Oc3nc4ncccc4s3)ccc12`, for which the IC50 came to 21 nM in [1] and 7.3 nM in data set [2].

In the case of `CC(=O)N1CC2CC1CN2Cc1cc2ccc(Oc3nc4cnccc4s3)cc2o1` (centres undefined), the IC50 in data set [2] is 2370 nM.

On to `CC(=O)N1CC2CC1CN2Cc1coc2cc(Oc3nc4ncccc4s3)ccc12` (centres undefined), for which the IC50 in data set [1] was 21 nM; in data set [2], 7.3 nM.

As for `c1ccc2sc(Oc3ccc4c(CN5CCCCC5)coc4c3)nc2c1`, the IC50 is 420 nM in [1] and 67 nM in data set [2].

For the compound `CC(=O)NC1CCN(Cc2coc3cc(Oc4nc5ncccc5s4)ccc23)CC1`, the IC50 in data set [1] was found to be 17 nM; in data set [2], 3.7 nM.

Take `CC(=O)N1CC2CC1CN2Cc1coc2cc(Oc3nc4cnccc4s3)ccc12` (centres undefined): the concentration for half-maximal inhibition (IC50) in data set [2] is 340 nM.

Take `CC(=O)N1CC2CC1CN2Cc1cc2cc(Oc3nc4cccnc4s3)ccc2o1` (centres undefined): in data set [2], the IC50 was determined as 340 nM.

For `CC(=O)NC1CCN(Cc2coc3cc(Oc4nc5ccccc5s4)ccc23)CC1`, the IC50 in data set [1] is 100 nM; in [2] it was 26 nM.

In the case of `c1cnc2nc(Oc3ccc4c(CN5CCCCC5)coc4c3)sc2c1`, the IC50 in data set [1] came out at 21 nM; in data set [2], 4.6 nM.
